Here are results for two molecules from article PMC4063695, “Design of Embedded-Hybrid Antimicrobial Peptides with Enhanced Cell Selectivity and Anti-Biofilm Activity” (PLoS ONE, 2014).

Assay [1] deals with E. coli ATCC25922. Put plainly: MIC in the presence of physiological salts. The class given is cell-based, Escherichia coli. On the set-up: unit not given here. An excerpt: (§1) E. coli ATCC25922, P. aeruginosa ATCC27853, S. aureus ATCC29213, S. epidermidis ATCC12228, S. faecalis ATCC29212 and B. subtilis CMCC63501 were obtained from the College of Veterinary Medicine, Northeast Agricultural University (Harbin, China), E. coli K88, E. coli CVCC1515 and P. aeruginosa ATCC15442 were bestowed by Prof. J.H. Wang (Gene Engineering Laboratory, Feed Research Institute, Chinese Academy of Agricultural Sciences Beijing, China) and E. coli UB1005 was kindly provided by Prof. Q.S. Qi (State Key Laboratory of Microbial Technology, Shandong University, China). […] Briefly, 50 µl of approximate 0.5–1 × 10^6 colony forming units (CFU)/ml of cells were diluted in Mueller-Hinton broth and distributed to 96-well plate, 50 µl of twofold peptides were added and the plates was incubated at 37°C for 18–24 h. The MIC values were calculated as the lowest peptide concentration that prevented visible turbidity and negative control of the pure broth without microbes. The tests were performed at least three times in duplicate.
(§2) The stability of peptides was tested in the MIC assay in different environments, including salt sensitivity, human serum, thermal stability and susceptibility to enzymes. For salt sensitivity, 0.5–1 × 10^6 CFU/ml of P. aeruginosa ATCC27853 and E. coli ATCC25922 were treated with peptides, while different salts were added to MHB, and the final concentrations of physiological salts were as follows: 150 mM NaCl, 4.5 mM KCl, 1 mM MgCl2, 6 µM NH4Cl, 8 µM ZnCl2, 4 µM FeCl3 and […] [33]. Except salt sensitivity, only E. coli ATCC25922 was treated with peptides. […] For testing peptide sensitivity to the proteolytic enzymes, the peptides were incubated in advance at 37°C for 1 h with a 1 mg/ml final concentration of the proteolytic enzymes (trypsin, pepsin, papain and proteinase K). For testing thermal stability, incubation occurred at 100°C for 1 h. After these treatments, the procedures were same as MIC assay described above.

For assay [2], the system named is E. coli ATCC25922. Put plainly: MIC after treatment with serum, enzymes and heat. The class given is cell-based, Escherichia coli. Conditions: E. coli ATCC25922.
Excerpt: as §1, §2

Another assay deals with E. coli UB1005. Put plainly: Cytoplasmic membrane electrical potential, diSC3-5. The class given is cell-based, Escherichia coli. The following applies: diSC3-5 release over 600 s. The procedure:
Peptides could alter the electrical potential of cytoplasmic membrane, and this potential that was measured by using E. coli UB1005 cells and diSC3-5 (Sigma), a membrane potential-sensitive fluorescent dye, as previously described, [35]. E. coli UB1005 was cultured to logarithmic phase in MHB, harvested by centrifugation, washed twice with buffer (5 mM of HEPES and 20 mM of glucose, pH 7.4) and resuspended to an OD600 of 0.05 in the identical buffer. The dye (diSC3-5) was added to above buffer at a final concentration of 0.4 µM. And the bacteria were incubated to take up the dye for 90 min. KCl was added to a final concentration of 0.1 M for equilibrating K^+ concentration between extracellular and intracellular environment, and then the bacteria were incubated at room temperature for 10 min. The cell suspension (2 ml) was placed in a 1-cm cuvette, and the peptides were added to different concentrations. The fluorescence intensity changes were monitored by using an F-4500 fluorescence spectrophotometer (Hitachi, Japan) with an excitation wavelength of 622 nm and an emission wavelength of 670 nm.

Another assay has as its system P. aeruginosa ATCC27853. As to the kind of experiment: MIC in the presence of physiological salts. It is filed as cell-based, Pseudomonas aeruginosa. The arrangement: unit not given here.
Excerpt: as §1, §2

The test system of assay [3] is Gram-negative and Gram-positive strains. As to the kind of experiment: MIC over all tested strains (range, geometric mean). The following applies: all strains of Table 2. The class given is cell-based. On the set-up: GM (geometric mean of MIC values from all microbial strains): unit not given here.
Excerpt: as §1

In assay [4] the test system is resistant variants of P. aeruginosa. Put plainly: microbe, parasite or virus in culture. It is filed as cell-based. The following applies: Pseudomonas aeruginosa, ATCC15442.
Excerpt: as §1

Setting [5] is: all kinds of salts in physiological concentrations.

With `CC[C@H](C)[C@H](NC(=O)CN)C(=O)NCC(=O)N[C@@H](C)C(=O)N[C@H](C(=O)N[C@@H](CC(C)C)C(=O)N[C@@H](CCCCN)C(=O)N[C@H](C(=O)N[C@@H](CC(C)C)C(=O)N[C@H](C(=O)N[C@H](C(=O)NCC(=O)N[C@@H](CC(C)C)C(=O)N1CCC[C@H]1C(=O)N[C@@H](C)C(=O)N[C@@H](CC(C)C)C(=O)N[C@H](C(=O)N[C@@H](CO)C(=O)N[C@@H](Cc1c[nH]c2ccccc12)C(=O)N[C@H](C(=O)N[C@@H](CCCCN)C(=O)N[C@@H](CCCNC(=N)N)C(=O)N[C@@H](CCCCN)C(=O)N[C@@H](CCCNC(=N)N)C(=O)N[C@@H](CCC(N)=O)C(=O)N[C@@H](CCC(N)=O)C(N)=O)[C@@H](C)CC)[C@@H](C)CC)[C@@H](C)O)[C@@H](C)O)C(C)C)C(C)C` [ME26, melittin, reference compound], the “MIC, FeCl3” value with E. coli ATCC25922 [1] (4 µM FeCl3 in MHB) and in the assay on P. aeruginosa ATCC27853 (4 µM FeCl3 in MHB) was 2 in each case. Moreover, the “MIC, NH4Cl” value in the assay with E. coli ATCC25922 [1] (6 µM NH4Cl in MHB) and in the assay on P. aeruginosa ATCC27853 (6 µM NH4Cl in MHB) was 2 each time. In addition, the figures for the “MIC, ZnCl2” value in the assay with E. coli ATCC25922 [1] (8 µM ZnCl2 in MHB) and in the assay with P. aeruginosa ATCC27853 (8 µM ZnCl2 in MHB) were 4 and 2, respectively. Further, the “MIC, MgCl2” value with E. coli ATCC25922 [1] (1 mM MgCl2 in MHB) stood at 4; with P. aeruginosa ATCC27853 (1 mM MgCl2 in MHB) it was 8. In addition, the “MIC, KCl” value in the assay on E. coli ATCC25922 [1] (4.5 mM KCl in MHB) and in the assay with P. aeruginosa ATCC27853 (4.5 mM KCl in MHB) was 2 throughout. Besides, the “MIC, NaCl” value worked out at 4 in the assay on E. coli ATCC25922 [1] (150 mM NaCl in MHB) and 2 in the assay with P. aeruginosa ATCC27853 (150 mM NaCl in MHB). The “MIC, Mix” value in the assay on E. coli ATCC25922 [1] (setting [5]) was determined as 4; in the assay with P. aeruginosa ATCC27853 (setting [5]), 16. In addition, the “MIC, CaCl2” value with E. coli ATCC25922 [1] (in MHB) and with P. aeruginosa ATCC27853 (2.5 µM CaCl2 in MHB) was 2 each time. Further, the “MIC, Control” value in the assay on E. coli ATCC25922 [1] (no added salts, unit not given) was determined as 2; with P. aeruginosa ATCC27853 (no added salts, unit not given), 2. The “MIC, Serum 25%” value in the assay on E. coli ATCC25922 [2] (25% human serum in MHB) was 8. The “MIC, Serum 50%” value in the assay with E. coli ATCC25922 [2] (50% human serum in MHB) was found to be 8. In addition, the “MIC, Heat 100°C” value in the assay with E. coli ATCC25922 [2] (peptide incubated at 100°C for 1 h) turned out to be 2. In the assay with E. coli ATCC25922 [2] (peptide pre-incubated 1 h at 37°C with 1 mg/ml enzyme (method names papain)), the “MIC, Enzymes Caroid” value is more than 128. In the assay on E. coli ATCC25922 [2] (peptide pre-incubated 1 h at 37°C with 1 mg/ml pepsin), the “MIC, Enzymes Pepsin” value is on record as more than 128. For the same molecule, the “MIC, Enzymes Proteinase K” value in the assay on E. coli ATCC25922 [2] (peptide pre-incubated 1 h at 37°C with 1 mg/ml proteinase K) is given as 32. For the same molecule, the “MIC, Enzymes Trypsin” value in the assay on E. coli ATCC25922 [2] (peptide pre-incubated 1 h at 37°C with 1 mg/ml trypsin) is given as more than 128. For the same molecule, the “cytoplasmic membrane depolarization (in words)” value with E. coli UB1005 is given as “able to permeabilize the bacterial cell membrane even at a lower concentration than their MICs”. The “GM (geometric mean of MIC values from all microbial strains)” value in assay [3] was found to be 2.2.
For the molecule `CNC(C)C1CCC(N)C(OC2C(N)CC(N)C(OC3OCC(C)(O)C(NC)C3O)C2O)O1` (stereo not shown) [gentamicin], the MIC in assay [4] is more than 256 µM.
